# Laboratory results published in patent US20240140944A1, “NOVEL NAPHTHYRIDINONE DERIVATIVE HAVING INHIBITORY ACTIVITY AGAINST ECTONUCLEOTIDE PYROPHOSPHATASE-PHOSPHODIESTERASE AND USE THEREOF” (TXINNO BIOSCIENCE INC., priority 2020, published 2024).
# Structures can show the parent of a compound that is named as a salt.
# Target: T1, human recombinant ENPP1 enzymes (Homo sapiens, UniProt P22413)
# T1 construct: purchased R & D systems
# T1 sequence (P22413 1-925): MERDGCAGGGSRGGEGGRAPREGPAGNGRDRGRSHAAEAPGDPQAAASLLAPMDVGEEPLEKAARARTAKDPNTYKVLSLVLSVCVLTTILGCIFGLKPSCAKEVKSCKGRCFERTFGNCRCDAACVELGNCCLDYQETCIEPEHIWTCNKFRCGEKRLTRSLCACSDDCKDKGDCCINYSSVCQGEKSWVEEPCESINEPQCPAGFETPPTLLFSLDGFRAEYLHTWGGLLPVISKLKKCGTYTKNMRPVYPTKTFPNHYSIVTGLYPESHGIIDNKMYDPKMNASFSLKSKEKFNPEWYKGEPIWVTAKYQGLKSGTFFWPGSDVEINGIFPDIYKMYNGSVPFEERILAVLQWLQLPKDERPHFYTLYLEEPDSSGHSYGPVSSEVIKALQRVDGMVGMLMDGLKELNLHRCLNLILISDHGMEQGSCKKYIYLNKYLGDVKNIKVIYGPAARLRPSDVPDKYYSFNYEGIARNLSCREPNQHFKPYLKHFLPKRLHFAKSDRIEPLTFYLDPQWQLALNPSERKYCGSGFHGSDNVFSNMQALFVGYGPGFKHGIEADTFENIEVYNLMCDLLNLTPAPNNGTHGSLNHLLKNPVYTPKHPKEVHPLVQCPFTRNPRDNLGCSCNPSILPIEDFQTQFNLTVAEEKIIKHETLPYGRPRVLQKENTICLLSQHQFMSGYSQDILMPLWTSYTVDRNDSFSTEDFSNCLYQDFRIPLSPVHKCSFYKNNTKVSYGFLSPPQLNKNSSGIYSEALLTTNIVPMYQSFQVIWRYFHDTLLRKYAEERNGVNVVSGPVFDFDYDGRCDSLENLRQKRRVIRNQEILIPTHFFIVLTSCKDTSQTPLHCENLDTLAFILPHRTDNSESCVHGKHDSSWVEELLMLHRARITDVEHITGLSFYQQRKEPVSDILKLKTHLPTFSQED
# Experiment: ENPP1 Enzyme Assay with cGAMP Substrate (AMP-Glo)
# Format: biochemical
# Details: human recombinant ENPP1 3 ng/reaction, cGAMP 5 μM, 37° C. 90 minutes, average of two or more tests; read-out: Enzymatic activity IC50
# Method: ENPP1 hydrolyzes nucleotides or nucleotide derivatives to produce nucleoside-5′-monophosphate and pyrophosphate. In addition, ENPP1 hydrolyzes 2′,3′-cGAMP to produce 5′-adenosine monophosphate (AMP) and 5′-guanosine monophosphate (GMP). AMP produced from the reaction is measured using the AMP-Glo® kit (Promega). The AMP-Glo® kit contains two reagents. The first reagent terminates the AMP-producing enzymatic reaction, removes ATP and converts the produced AMP into ADP. The second reagent converts ADP to ATP which is used to generate luminescence in the luciferase reaction. The amount of luminescence measured is proportional to the amount of AMP produced by ENPP1.
# The final reaction mixture contains 50 mM Tris (pH 8.5) buffer, 250 mM NaCl, 0.5 mM CaCl2), 1 μM ZnCl2, 5% glycerol and 1% DMSO. Serially diluted ENPP1 inhibitors (typically in the range of 10 μM to 0.5 nM) were pre-stored with human recombinant ENPP1 enzymes (R & D systems) at 3 ng/reaction and room temperature (RT) for 5 to 10 minutes. The reaction was initiated by addition of cGAMP (at a final concentration of 5 μM) and reacted at 37° C. for 90 minutes. At the end of the reaction, 10 μl of the AMP-Glo first reagent was added to stop the reaction and the result was stored at room temperature for 1 hour. After storage, 20 μl of an AMP detection solution (a mixture of AMP-Glo II reagent and Kinase-Glo at a ratio of 1:100) was added and stored at room temperature for 1 hour. Luminescence signals were measured using a Victor® plate reader (Perkin Elmer). The maximal activity control (containing enzymes and substrates in the presence of 1% DMSO; MAX) and the minimal activity control (containing substrates and 1% DMSO; MIN) were evaluated simultaneously. In each experiment, serially diluted reference ENPP1 inhibitors were tested as well. IC50, indicating % residual activity versus compound concentration was determined by fitting inhibition curves using the 3-parameter analysis of GraphPad Prism® software. Serially diluted samples of one compound were tested two or more times and an average IC50 of each compound was calculated.
row,IC50,SMILES
1,1000 to 10000 nM,"CC(C)(N)c1ccc(-c2ccnc3[nH]c(=O)ccc23)cc1 [Example 16, 5-(4-(2-aminopropan-2-yl)phenyl)-1,8-naphthyridin-2(1H)-one hydrochloride]"
2,1000 to 10000 nM,"CN[C@H](C)c1ccc(-c2ccnc3[nH]c(=O)ccc23)cc1 [Example 17, (R)-5-(4-(1-(methylaminoethyl)phenyl)-1,8-naphthyridin-2(1H)-one hydrochloride]"
3,< 1000 nM,"CN[C@@H](C)c1ccc(-c2ccnc3[nH]c(=O)ccc23)cc1 [Example 18, (S)-5-(4-(1-(methylaminoethyl)phenyl)-1,8-naphthyridin-2(1H)-one hydrochloride]"
4,1000 to 10000 nM,"NS(=O)(=O)Nc1ccc(-c2ccnc3[nH]c(=O)ccc23)cc1 [Example 39, N-(4-(7-oxo-7,8-dihydro-1,8-naphthyridin-4-yl)phenyl)sulfamide]"
5,< 1000 nM,"NS(=O)(=O)NCc1ccc(-c2ccnc3[nH]c(=O)ccc23)cc1 [Example 40, N-(4-(7-oxo-7,8-dihydro-1,8-naphthyridin-4-yl)benzyl)sulfamide]"
6,< 1000 nM,"C[C@@H](NS(N)(=O)=O)c1ccc(-c2ccnc3[nH]c(=O)ccc23)cc1 [Example 46, (R)-(N-(1-(4-(7-oxo-7,8-dihydro-1,8-naphthyridin-4-yl)phenyl)ethyl)sulfamide hydrochloride]"
7,< 1000 nM,"C[C@H](NS(N)(=O)=O)c1ccc(-c2ccnc3[nH]c(=O)ccc23)cc1 [Example 47, (S)-(N-(1-(4-(7-oxo-7,8-dihydro-1,8-naphthyridin-4-yl)phenyl)ethyl)sulfamide hydrochloride]"
8,< 1000 nM,"C[C@@H](NS(N)(=O)=O)c1ccc(-c2ccnc3[nH]c(=O)ccc23)cc1F [Example 48, (R)-(N-(1-(2-fluoro-4-(7-oxo-7,8-dihydro-1,8-naphthyridin-4-yl)phenyl)ethyl)sulfamide hydrochloride]"
9,< 1000 nM,"CN(Cc1ccc(-c2ccnc3[nH]c(=O)ccc23)cc1)S(N)(=O)=O [Example 50, N-methyl-N-(4-(7-oxo-7,8-dihydro-1,8-naphthyridin-4-yl)benzyl)sulfamide hydrochloride]"
10,< 1000 nM,"CCN(Cc1ccc(-c2ccnc3[nH]c(=O)ccc23)cc1)S(N)(=O)=O [Example 51, N-ethyl-N-(4-(7-oxo-7,8-dihydro-1,8-naphthyridin-4-yl)benzyl)sulfamide hydrochloride]"
11,> 10000 nM,"CC(C)N(Cc1ccc(-c2ccnc3[nH]c(=O)ccc23)c(F)c1)S(N)(=O)=O [Example 57, N-(3-fluoro-4-(7-oxo-7,8-dihydro-1,8-naphthyridin-4-yl)benzyl)-N-isopropyl)sulfamide hydrochloride]"
12,< 1000 nM,"C[C@H](c1ccc(-c2ccnc3[nH]c(=O)ccc23)cc1)N(C)S(N)(=O)=O [Example 59, (R)-(N-methyl-N-(1-(4-(7-oxo-7,8-dihydro-1,8-naphthyridin-4-yl)phenyl)ethyl)sulfamide hydrochloride]"
13,1000 to 10000 nM,"C[C@H](c1ccc(-c2ccnc3[nH]c(=O)ccc23)cc1)N(C1CC1)S(N)(=O)=O [Example 60, (R)-(N-cyclopropyl-N-(1-(4-(7-oxo-7,8-dihydro-1,8-naphthyridin-4-yl)phenyl)ethyl)sulfamide hydrochloride]"
14,< 1000 nM,"O=c1ccc2c(-c3ccc(CNS(=O)(=O)c4cccs4)cc3)ccnc2[nH]1 [Example 70, N-(4-(7-oxo-7,8-dihydro-1,8-naphthyridin-4-yl)benzyl)thiophene-2-sulfonamide]"
15,1000 to 10000 nM,"O=c1ccc2c(-c3ccc(CNS(=O)(=O)C4CC4)cc3)ccnc2[nH]1 [Example 71, N-(4-(7-oxo-7,8-dihydro-1,8-naphthyridin-4-yl)benzyl)cyclopropanesulfonamide]"
16,< 1000 nM,"O=c1ccc2c(-c3ccc(CP(=O)(O)O)cc3)ccnc2[nH]1 [Example 75, (4-(7-oxo-7,8-dihydro-1,8-naphthyridin-4-yl)benzyl)phosphonic acid]"

# The next lines start with the molecule.
row,SMILES,IC50
1,"CC(C)(C)OC(=O)Nc1cccc(-c2ccnc3[nH]c(=O)ccc23)c1 [Example 1, tert-butyl(3-(7-oxo-7,8-dihydro-1,8-naphthyridin-4-yl)phenyl)carbamate]",1000 to 10000 nM
2,"CC(C)(C)OC(=O)NCc1cccc(-c2ccnc3[nH]c(=O)ccc23)c1 [Example 2, tert-butyl(3-(7-oxo-7,8-dihydro-1,8-naphthyridin-4-yl)benzyl)carbamate]",1000 to 10000 nM
3,"CC(C)(C)OC(=O)NCc1ccc(-c2ccnc3[nH]c(=O)ccc23)cc1 [Example 3, tert-butyl(4-(7-oxo-7,8-dihydro-1,8-naphthyridin-4-yl)benzyl)carbamate]",1000 to 10000 nM
4,"NCc1cccc(-c2ccnc3[nH]c(=O)ccc23)c1 [Example 7, 5-(3-(aminomethyl)phenyl)-1,8-naphthyridin-2(1H)-one hydrochloride]",< 1000 nM
5,"Cl.Nc1ccc(F)c(-c2ccnc3[nH]c(=O)ccc23)c1 [Example 8, 5-(5-(amino-2-fluorophenyl)-1,8-naphthyridin-2(1H)-one hydrochloride]",> 10000 nM
6,"O=c1ccc2c(-c3ccc4c(c3)CNC4)ccnc2[nH]1 [Example 26, 5-(isoindolin-5-yl)-1,8-naphthyridin-2(1H)-one hydrochloride]",< 1000 nM
7,"O=c1ccc2c(-c3ccc4c(c3)CNCC4)ccnc2[nH]1 [Example 27, 5-(1,2,3,4-tetrahydroisoquinolin-7-yl)-1,8-naphthyridin-2(1H)-one hydrochloride]",1000 to 10000 nM
8,"Cn1c(=O)ccc2c(-c3ccc(CN)cc3)ccnc21 [Example 29, 5-(4-(aminomethyl)phenyl)-1-methyl-1,8-naphthyridin-2(1H)-one hydrochloride]",1000 to 10000 nM
9,"CC(C)(C)OC(=O)NS(=O)(=O)NCc1ccc(-c2ccnc3[nH]c(=O)ccc23)cc1 [Example 32, tert-butyl(N-(4-(7-oxo-7,8-dihydro-1,8-naphthyridin-4-yl)benzyl)sulfamoyl)carbamate]",< 1000 nM
10,"NS(=O)(=O)NCc1cc(F)c(-c2ccnc3[nH]c(=O)ccc23)c(F)c1 [Example 44, N-(3,5-difluoro-4-(7-oxo-7,8-dihydro-1,8-naphthyridin-4-yl)benzyl)sulfamide hydrochloride]",< 1000 nM
11,"NS(=O)(=O)N1CCc2cc(F)c(-c3ccnc4[nH]c(=O)ccc34)cc2C1 [Example 66, 6-fluoro-7-(7-oxo-7,8-dihydro-1,8-naphthyridin-4-yl)-3,4-dihydroisoquinoline-2(1H)-sulfamide hydrochloride]",< 1000 nM
12,"Cn1c(=O)ccc2c(-c3ccc(CNS(N)(=O)=O)cc3)ccnc21 [Example 67, N-(4-(8-methyl-7-oxo-7,8-dihydro-1,8-naphthyridin-4-yl)benzyl)sulfamide]",< 1000 nM
13,"CCOP(=O)(O)Cc1ccc(-c2ccnc3[nH]c(=O)ccc23)cc1 [Example 74, ethylhydrogen(4-(7-oxo-7,8-dihydro-1,8-naphthyridin-4-yl)benzyl)phosphonate]",1000 to 10000 nM
14,"NCc1cccc(Nc2ccnc3[nH]c(=O)ccc23)c1 [Example 77, 5-((3-aminomethyl)phenyl)amino)-1,8-naphthyridin-2(1H)-one dihydrochloride]",< 1000 nM
15,"NCc1cc(Nc2ccnc3[nH]c(=O)ccc23)ccc1F [Example 78, 5-((3-aminomethyl)-4-fluorophenyl)amino)-1,8-naphthyridin-2(1H)-one dihydrochloride]",< 1000 nM
